In ChEMBL document CHEMBL1759948, “Use of the NEO strategy (Nucleophilic addition/Epoxide Opening) for the synthesis of a new C-galactoside ester analogue of KRN 7000” (2011):

Legend:
Assay type in all cases: functional
[1] = organism: Mus musculus; assay: Induction of IFN-gamma production in BALB/c mouse after 6 hrs by ELISA
[2] = organism: Mus musculus; assay: Induction of IL-4 production in BALB/c mouse after 6 hrs by ELISA
[3] = organism: Mus musculus; assay: Ratio of induction of IFN-gamma production to induction of IL-4 production in BALB/c mouse after 6 hrs

| Structure (SMILES) | Activity [1] [pg/mL] | Activity [2] [pg/mL] | Ratio [3] |
| --- | --- | --- | --- |
| CCCCCCCCCCCCCCCCCCCCCCCCCC(=O)O[C@H](CCCCCCCCCCCCCC)[C@@H](O)[C@@H](O)CC[C@H]1O[C@H](CO)[C@H](O)[C@H](O)[C@H]1O | 90 | 83 | 1.37 |
| CCCCCCCCCCCCCCCCCCCCCCCCCC(=O)N[C@@H](CO[C@H]1O[C@H](CO)[C@H](O)[C@H](O)[C@H]1O)[C@H](O)[C@H](O)CCCCCCCCCCCCCC [RGI-7000] | 12145 | 1450 | 8.35 |
